Assay [1] concerns the target T1, Sheep seminal vesicle (SSV) cyclooxygenase (Ovis aries, UniProt P05979).
T1 construct: Sheep seminal vesicle (SSV) cyclooxygenase (95% pure); purchased Biomol (Plymouth Meeting, PA); host or cells: sheep seminal vesicle
T1 sequence (P05979 25-600): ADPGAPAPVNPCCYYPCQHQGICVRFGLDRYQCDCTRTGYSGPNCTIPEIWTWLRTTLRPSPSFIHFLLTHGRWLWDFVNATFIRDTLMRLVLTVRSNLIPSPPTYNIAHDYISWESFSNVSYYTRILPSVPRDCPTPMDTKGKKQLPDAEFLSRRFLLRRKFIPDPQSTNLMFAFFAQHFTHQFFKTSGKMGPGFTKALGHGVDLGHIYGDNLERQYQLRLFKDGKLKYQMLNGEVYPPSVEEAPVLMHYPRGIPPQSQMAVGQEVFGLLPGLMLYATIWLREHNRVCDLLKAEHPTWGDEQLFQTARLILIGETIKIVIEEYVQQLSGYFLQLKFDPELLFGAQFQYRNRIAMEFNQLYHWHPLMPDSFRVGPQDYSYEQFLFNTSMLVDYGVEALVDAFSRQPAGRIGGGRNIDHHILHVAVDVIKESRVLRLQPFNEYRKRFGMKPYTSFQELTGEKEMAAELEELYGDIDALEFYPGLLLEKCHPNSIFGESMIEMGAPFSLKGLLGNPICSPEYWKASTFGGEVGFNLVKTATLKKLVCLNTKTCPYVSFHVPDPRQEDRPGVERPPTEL
As to the kind of experiment: Procedure I: inhibition of sheep seminal vesicle (SSV) cyclooxygenase. It counts as biochemical. The following applies: SSV cyclooxygenase; for IC50: read-out: Proc. I IC50; for inhibition at 10 µM: 20 min, @ 10 .quadrature.M, read-out: Proc. I % inhibition. The method, then:
Procedure I was used to determine the ability of the compounds to inhibit cyclooxygenase. […] The enzyme was divided into 200 μL aliquots, snap frozen with liquid N2, and stored at -70° C. until immediately prior to use. […] The tubes were mixed on a vortex shaker, preincubated for 5 min at 37° C. prior to the initiation of the reaction. The reaction was started by the addition of [^14 C]-arachidonic acid (1-^14 C-AA, Amersham, Arlington Heights, Ill.) in 10 μL of methanol. Tubes were again vortexed and incubated in a water bath for 20 minutes after which the tubes were removed and the reaction stopped by acidification with the addition of 1 mL 2M formic acid. Lipophilic products were extracted with 3 mL chloroform and concentrated to dryness under N2. Each pellet was reconstituted with 40 μL of chloroform and spotted on a Whatman Silicon thin-layer chromatography plate and developed in a chromatography tank containing A-9 solvent (11:5:2:1 V:V:VV, ethyl acetate:trimethyl-pentane:acetic acid:double distilled-H2 O). Radioactive cyclooxygenase products (prostaglandin D2, prostaglandin E2, etc.) were measured using a Bioscan System 200 Imaging Scanner. Inhibition of enzyme activity was calculated by comparing the areas under the curve produced in the presence or absence of test compound.

Assay [2] deals with T2, CO (Rattus norvegicus, UniProt Q63921).
T2 construct: the supernatant was saved as the source of enzymes; endogenous in cells; host or cells: RBL-1 (rat basophilic leukemia) cells
T2 sequence (Q63921 27-602): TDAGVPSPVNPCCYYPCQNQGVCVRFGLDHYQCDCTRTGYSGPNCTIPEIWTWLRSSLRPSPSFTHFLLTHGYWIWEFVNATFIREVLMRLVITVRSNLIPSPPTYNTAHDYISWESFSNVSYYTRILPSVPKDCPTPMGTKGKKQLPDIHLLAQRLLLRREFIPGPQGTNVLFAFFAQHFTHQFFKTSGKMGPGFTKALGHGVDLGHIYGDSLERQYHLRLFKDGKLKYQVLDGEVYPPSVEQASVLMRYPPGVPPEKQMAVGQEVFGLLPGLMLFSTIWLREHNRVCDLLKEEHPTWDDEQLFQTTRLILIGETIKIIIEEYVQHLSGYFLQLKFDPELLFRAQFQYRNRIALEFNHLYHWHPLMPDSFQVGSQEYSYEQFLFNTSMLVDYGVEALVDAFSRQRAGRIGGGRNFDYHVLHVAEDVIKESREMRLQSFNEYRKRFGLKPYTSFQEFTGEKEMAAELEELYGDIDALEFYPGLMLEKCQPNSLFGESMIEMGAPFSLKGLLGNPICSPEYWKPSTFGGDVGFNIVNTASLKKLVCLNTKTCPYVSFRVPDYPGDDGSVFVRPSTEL
Put plainly: Procedure II: CO activity in broken RBL-1 cells (homogenate supernatant). In kind it is biochemical. The following applies: RBL-1 broken cell supernatant; for inhibition at 10 µM: 20 min, @ 10 .quadrature.M, read-out: Proc. II CO % inhibition; for IC50: read-out: Proc. II CO IC50. The method, then:
(§1) Procedure II was used to assess LO and CO activity. Rat basophilic leukemia cells (RBL-1; 5×10^7 viable cells/mL) were disrupted by homogenization on ice (four 20 sec bursts) with a Brinkman polytron. […] The homogenate was then centrifuged at 9,220×g for 48 minutes at 4° C. The pellet was discarded and the supernatant was saved as the source of enzymes. The supernatant was pre-incubated for five minutes at 37° C. in the presence of 2 mM of CaCl2 and compound or vehicle (1% DMSO). The conversion of AA into products by CO and LO was initiated by adding 10 μL (50 μCi) of 1-^14 C-AA to each tube and incubated at 37° C. for 20 minutes. The reaction was stopped by adjusting the pH of each sample to 3 to 3.5 with 2M formic acid. Samples were extracted with three volumes of chloroform to isolate the products of 5-LO formed during the reaction. Fractions were dried under nitrogen, then resuspended in 40 μL of chloroform and spotted onto silica gel HL plates. The plates were developed in A-9 solvent. The dried plates were analyzed using a Bioscan Imaging TLC scanner to determine the percentage of radiolabelled AA converted to 5-HETE (LO product) in each sample. The percentage of inhibition was calculated by:
(§2) [1-(5-HETE test)]/5-HETE control×100=% inhibition
(§3) The IC50 was determined using a curve fit in Cricket Graph (Computer Associated), which provided the equation of the regressed line used in the calculation.

For assay [3], the target named is T3, 5-LO (Rattus norvegicus, UniProt P12527).
T3 construct: the supernatant was saved as the source of enzymes; endogenous in cells; host or cells: RBL-1 (rat basophilic leukemia) cells
T3 sequence (P12527 1-673): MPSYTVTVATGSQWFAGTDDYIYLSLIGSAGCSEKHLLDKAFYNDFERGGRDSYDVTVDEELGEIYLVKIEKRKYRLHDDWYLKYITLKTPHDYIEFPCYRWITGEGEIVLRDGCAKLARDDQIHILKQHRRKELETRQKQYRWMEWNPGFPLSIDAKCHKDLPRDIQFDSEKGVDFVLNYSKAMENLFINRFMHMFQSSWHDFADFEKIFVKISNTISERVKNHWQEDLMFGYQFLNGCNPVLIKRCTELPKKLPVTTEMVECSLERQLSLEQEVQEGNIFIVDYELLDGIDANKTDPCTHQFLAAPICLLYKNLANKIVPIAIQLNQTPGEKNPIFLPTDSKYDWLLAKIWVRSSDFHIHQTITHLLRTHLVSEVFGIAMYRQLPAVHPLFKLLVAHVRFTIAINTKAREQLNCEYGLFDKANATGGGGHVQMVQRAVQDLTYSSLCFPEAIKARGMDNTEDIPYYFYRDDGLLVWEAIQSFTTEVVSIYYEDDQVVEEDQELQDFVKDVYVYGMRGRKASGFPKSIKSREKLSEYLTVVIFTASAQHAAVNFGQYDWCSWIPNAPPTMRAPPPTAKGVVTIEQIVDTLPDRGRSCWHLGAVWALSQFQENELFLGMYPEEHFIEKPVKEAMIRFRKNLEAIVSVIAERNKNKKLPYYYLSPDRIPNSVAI
Put plainly: Procedure II: 5-LO activity (5-HETE) in broken RBL-1 cells (homogenate supernatant). It counts as biochemical. The following applies: RBL-1 broken cell supernatant; for IC50: read-out: Proc. II 5-LO IC50; for inhibition at 10 µM: 20 min, @ 10 .quadrature.M, read-out: Proc. II 5-LO % inhibition. The method, then: as §1, §2, §3

For assay [4], the target named is T3, 5-LO. As to the kind of experiment: Procedure III: 5-LO (5-HETE) in intact RBL-1 cells. It counts as cell-based. The following applies: calcium ionophore A 23187, read-out: Proc. III 5-LO IC50. As for the experimental part:
as §3
(§4) In Procedure III, the ability to inhibit 5-LO and CO in intact RBL-1 cells was also evaluated. […] Cells were collected by centrifugation, washed once in HBSS, and resuspended at a concentration of 1×10^5 cells/mL. Cells were incubated in the presence of vehicle or drug then centrifuged at 800×g for 10 minutes at 4° C. The supernatant was removed by aspiration and the cells were resuspended in 0.5 mL of HBSS. […] The conversion of AA to 5-LO products was initiated by the addition of 10 μL (50 μCi) of 1-^14 C-AA. Products were isolated by acidification and extraction, followed by thin layer chromatography analysis as described above. Radioactive areas corresponding to authentic 5-LO (5-HETE) and CO (PgD2) products were quantitated by the Bioscan 2000 Imaging System and the IC50 was calculated as above.

The target of assay [5] is T2, CO. Put plainly: Procedure III: CO (PgD2) in intact RBL-1 cells. In kind it is cell-based. The following applies: calcium ionophore A 23187, read-out: Proc. III CO IC50. As for the experimental part: as §3, §4

Structures are written as SMILES.

Turning to `COc1ccc(-n2nc(C#CC(C)N(O)C(N)=O)cc2-c2ccc(Cl)cc2)cc1` (stereo not shown) [Cpd 6], the IC50 in assay [1] turned out to be 32000 nM; on 5-LO [3] it was 10 nM; on 5-LO [4], 3500 nM; on CO [5], 6200 nM. Further, the inhibition at 10 µM at CO [2] amounted to 0%.
Turning to `COc1ccc(-n2nc(C#CC(C)N(O)C(=O)CCl)cc2-c2ccc(C)cc2)cc1` (stereo not shown) [Cpd 21, N-Chloroacetyl-N-(1-(1-(4-methoxyphenyl)-5-(4-methylphenyl)pyrazol-3-yl)-1-butyn-3-yl)hydroxylamine], the IC50 in assay [1] stood at 1200 nM; on 5-LO [4], 23600 nM; on CO [5], 360 nM. The inhibition at 10 µM at CO [2] and on 5-LO [3] was 100% each time.
With `CCOC(=O)C(=O)N(O)C(C)C#Cc1cc(-c2ccc(C)cc2)n(-c2ccc(OC)cc2)n1` (stereo not shown) [Cpd 24], the inhibition at 10 µM in assay [1] stood at 66%; at CO [2] it was 50%; at 5-LO [3] it was 71%. The figures for the IC50 on 5-LO [4] and at CO [5] were 8500 nM and 3400 nM, respectively.
For the compound `COC(=O)N(O)C(C)C#Cc1cc(-c2ccc(Cl)cc2)n(-c2ccc(OC)cc2)n1` (stereo not shown) [Cpd 41, N-methoxycarbony-N-(1-(5-(4-chlorophenyl)-1-(4-methoxyphenyl)pyrazol-3-yl)-1-butyn-3-yl)hydroxylamine], the IC50 in assay [1] worked out at 1620 nM; on 5-LO [4] it was 8700 nM; on CO [5] it was 290 nM. In addition, the inhibition at 10 µM at CO [2] is 84%; on 5-LO [3], 77%.
As to `COc1ccc(-n2nc(C#CCN(O)C(=O)c3ccncc3)cc2-c2ccc(C)cc2)cc1` [Cpd 16], the inhibition at 10 µM in assay [1] was determined as 17%; at CO [2] it was 66%; on 5-LO [3], 89%. Besides, the IC50 stood at 26600 nM at 5-LO [4] and 5500 nM on CO [5].
For the compound `COc1ccc(-n2nc(C#CC(C)N(O)C(=O)C(F)(F)F)cc2-c2ccc(C)cc2)cc1` (stereo not shown) [Cpd 23, N-trifluoroacetyl-N-(1-(1-(4-methoxyphenyl)-5-(4-methylphenyl)pyrazol-3-yl)-1-butyn-3-yl)hydroxylamine], the IC50 in assay [1] came to 420 nM; at CO [2], 50 nM; at 5-LO [3], 1660 nM; at 5-LO [4] it was 23500 nM; on CO [5], 190 nM.
As to `COc1ccc(-n2nc(C#CCN(O)C(C)=O)cc2-c2ccc(C)cc2)cc1` [Cpd 13, N-acetyl-N-(1-(1-(4-methoxyphenyl)-5-(4-methylphenyl)pyrazol-3-yl)-1-propyn-3-yl)hydroxylamine], the inhibition at 10 µM was determined as 74% in assay [1], 100% at CO [2] and 100% at 5-LO [3]. The IC50 was found to be 7200 nM on 5-LO [4] and 30 nM at CO [5].
For `COC(=O)N(O)CC#Cc1cc(-c2ccc(C)cc2)n(-c2ccc(OC)cc2)n1` [Cpd 17, N-methoxycarbonyl-N-(1-(1-(4-methoxyphenyl)-5-(4-methylphenyl)pyrazol-3-yl)-1-propyn-3-yl)hydroxylamine], the values for the inhibition at 10 µM (in assay [1]; at CO [2]; at 5-LO [3]) were 74%, 100% and 100%, respectively. Also, the IC50 at 5-LO [4] was found to be 8800 nM; at CO [5], 280 nM.
With `COc1ccc(-n2nc(C#CC(C)N(O)C(=O)C(C)C)cc2-c2ccc(C)cc2)cc1` (stereo not shown) [Cpd 20, N-isobutyryl-N-(1-(1-(4-methoxyphenyl) -5(4-methylphenyl)pyrazol-3-yl)-1-butyn-3-yl)hydroxylamine], the IC50 was determined as 390 nM in assay [1]; 40 nM at CO [2]; 100 nM on 5-LO [3]; 5600 nM on 5-LO [4]; 90 nM at CO [5].
Turning to `COc1ccc(-n2nc(C#CC(C)N(O)C(=O)c3ccccc3)cc2-c2ccc(Cl)cc2)cc1` (stereo not shown) [Cpd 40], in assay [1], the inhibition at 10 µM amounted to 5%. Also, the IC50 was found to be 14900 nM at CO [2], 920 nM on 5-LO [3], 1800 nM on 5-LO [4] and 5500 nM at CO [5].
Regarding `CCC(C#Cc1cc(-c2ccc(C)cc2)n(-c2ccc(OC)cc2)n1)N(O)C(N)=O` (stereo not shown) [Cpd 3], in assay [1], the inhibition at 10 µM was 22%. The IC50 on CO [2] came to 15900 nM; on 5-LO [3], 70 nM; at 5-LO [4], 21300 nM; at CO [5], 2100 nM.

The values above are taken from patent US5925769A, “Acetylenic 1,5-diarylpyrazoles as antiinflammatory agents” (Ortho Pharmaceutical, Corp., priority 1998, dated 1999).
